Where two headings read alike, the source gives them in different places.
What was measured:
[1] = target: T1, PXR (NR1I2) (Homo sapiens, UniProt O75469); assay: ATG_PXRE_CIS: Factorial reporter gene assay (HepG2); assay type: cell-based; design: endogenous in cells; host or cells: HepG2
T1 sequence (O75469 1-434): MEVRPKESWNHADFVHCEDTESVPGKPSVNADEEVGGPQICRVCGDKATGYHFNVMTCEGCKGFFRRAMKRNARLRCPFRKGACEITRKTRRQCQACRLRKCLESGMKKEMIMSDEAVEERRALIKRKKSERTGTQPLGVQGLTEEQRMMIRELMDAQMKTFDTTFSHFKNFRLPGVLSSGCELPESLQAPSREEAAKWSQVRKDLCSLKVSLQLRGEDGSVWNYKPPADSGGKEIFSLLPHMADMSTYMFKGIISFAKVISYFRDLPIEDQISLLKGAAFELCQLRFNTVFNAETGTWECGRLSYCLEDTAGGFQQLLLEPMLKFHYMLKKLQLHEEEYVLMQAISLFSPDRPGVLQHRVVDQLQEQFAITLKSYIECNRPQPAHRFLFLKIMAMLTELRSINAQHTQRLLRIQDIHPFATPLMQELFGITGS
In short: (§1)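 Mammalian one-hybrid trans reporters (25 MRTUs) measured ERRg, FXR and PPARg; PXRE used cis reporters from a 48-site MRTU library. Both were run in HepG2. Dosing: seven concentrations, MTC as the highest, three-fold dilution series.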

[2] = tested on: Rat Liver; settings: ref ToxRefDB, cited from earlier work
[3] = target: T2, AHR (aryl hydrocarbon receptor) (Homo sapiens, UniProt P35869); assay: ATG_Ahr_CIS: Factorial reporter gene assay (multiplexed transcription reporter, HepG2); assay type: cell-based
T2 construct: endogenous in cells; host or cells: HepG2
T2 sequence (P35869 11-848): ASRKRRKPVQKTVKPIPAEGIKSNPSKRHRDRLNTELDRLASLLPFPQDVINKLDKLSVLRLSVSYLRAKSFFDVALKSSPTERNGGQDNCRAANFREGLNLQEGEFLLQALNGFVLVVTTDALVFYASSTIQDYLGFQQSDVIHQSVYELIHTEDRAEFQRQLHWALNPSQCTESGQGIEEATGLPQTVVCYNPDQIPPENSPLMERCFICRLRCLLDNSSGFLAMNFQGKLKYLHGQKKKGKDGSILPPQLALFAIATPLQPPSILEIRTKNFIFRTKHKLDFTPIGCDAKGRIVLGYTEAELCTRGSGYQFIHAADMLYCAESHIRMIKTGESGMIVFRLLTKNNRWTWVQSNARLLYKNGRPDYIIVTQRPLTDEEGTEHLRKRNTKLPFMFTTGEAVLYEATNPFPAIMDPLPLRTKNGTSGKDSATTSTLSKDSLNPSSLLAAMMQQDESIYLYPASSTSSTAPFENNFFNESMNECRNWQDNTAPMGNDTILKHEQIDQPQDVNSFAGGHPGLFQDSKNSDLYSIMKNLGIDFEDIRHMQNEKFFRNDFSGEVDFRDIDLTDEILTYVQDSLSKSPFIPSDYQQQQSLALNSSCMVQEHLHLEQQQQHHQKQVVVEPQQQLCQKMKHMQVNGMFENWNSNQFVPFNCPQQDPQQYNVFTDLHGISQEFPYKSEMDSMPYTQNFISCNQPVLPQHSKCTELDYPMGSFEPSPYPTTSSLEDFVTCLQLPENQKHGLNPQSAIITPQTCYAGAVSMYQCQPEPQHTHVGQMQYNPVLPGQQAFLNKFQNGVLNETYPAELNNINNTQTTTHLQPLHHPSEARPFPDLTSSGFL
Description: (§2) A multiple reporter transcription unit (MRTU) library consisting of 48 transcription factor binding sites was transfected into the HepG2 human liver hepatoma cell line. In addition to the cis-acting reporter genes (CIS), a modification of the approach was used to generate a trans-system (TRANS) with a mammalian one-hybrid assay consisting of an additional 25 MRTU library reporting the activity of nuclear receptor super-family members. […] These assays were performed by Attagene Inc. (Morrisville NC) under contract to EPA.
(§3) In addition to the cis-acting reporter genes (CIS), a modification of the approach was used to generate a trans-system (TRANS) with a mammalian one-hybrid assay consisting of an additional 25 MRTU library reporting the activity of nuclear receptor super-family members. […] Chemicals were then tested in the CIS and TRANS assays at seven concentrations starting at the MTC and followed by three-fold serial dilutions. These assays were performed by Attagene Inc. (Morrisville NC) under contract to EPA. Detailed description of the methods, data and analysis methods for this dataset will be presented in a separate publication.

[4] = tested on: Rat Liver; settings: ref ToxRefDB, cited from earlier work; remark: listed apart in the source
[5] = tested on: CYP1A2; assay: CLZD_CYP1A2: Change in expression of CYP1A2 (primary human hepatocytes); assay type: cell-based; settings: 24 hr
In short: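 Primary human hepatocyte cultures were exposed to test chemicals at 5 concentrations (0.004-40 µM) for 6, 24 or 48 hr.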

[6] = tested on: Rat Liver; settings: ref ToxRefDB, cited from earlier work; remark: listed apart in the source
[7] = target: T3, PPARG (peroxisome proliferator-activated receptor gamma) (Homo sapiens, UniProt P37231); assay: ATG_PPARg_TRANS: Factorial reporter gene assay (HepG2); assay type: cell-based; settings: HepG2
T3 construct: expressed in transfected cells; host or cells: HepG2
T3 sequence (P37231 1-505): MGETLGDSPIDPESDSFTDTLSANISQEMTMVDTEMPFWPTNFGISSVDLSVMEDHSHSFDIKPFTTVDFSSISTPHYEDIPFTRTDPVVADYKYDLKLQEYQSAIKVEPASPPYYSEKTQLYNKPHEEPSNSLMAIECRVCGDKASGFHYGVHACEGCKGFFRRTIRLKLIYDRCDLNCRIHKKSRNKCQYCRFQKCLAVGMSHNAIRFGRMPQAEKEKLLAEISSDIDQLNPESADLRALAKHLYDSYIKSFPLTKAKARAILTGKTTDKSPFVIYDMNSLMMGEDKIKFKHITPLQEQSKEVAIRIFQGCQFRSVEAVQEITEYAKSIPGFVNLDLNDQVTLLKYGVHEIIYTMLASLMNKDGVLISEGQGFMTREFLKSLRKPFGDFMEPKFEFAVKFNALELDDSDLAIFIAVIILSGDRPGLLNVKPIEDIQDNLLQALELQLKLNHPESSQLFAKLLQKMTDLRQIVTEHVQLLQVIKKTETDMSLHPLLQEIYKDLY
In short: as §1

[8] = tested on: Mouse Liver; settings: ref ToxRefDB, cited from earlier work
[9] = target: T4, ESR1 (estrogen receptor 1) (Homo sapiens, UniProt P03372); assay: ATG_ERa_TRANS: Factorial reporter gene assay (HepG2); assay type: cell-based
T4 construct: expressed in transfected cells; host or cells: HepG2
T4 sequence (P03372 whole entry): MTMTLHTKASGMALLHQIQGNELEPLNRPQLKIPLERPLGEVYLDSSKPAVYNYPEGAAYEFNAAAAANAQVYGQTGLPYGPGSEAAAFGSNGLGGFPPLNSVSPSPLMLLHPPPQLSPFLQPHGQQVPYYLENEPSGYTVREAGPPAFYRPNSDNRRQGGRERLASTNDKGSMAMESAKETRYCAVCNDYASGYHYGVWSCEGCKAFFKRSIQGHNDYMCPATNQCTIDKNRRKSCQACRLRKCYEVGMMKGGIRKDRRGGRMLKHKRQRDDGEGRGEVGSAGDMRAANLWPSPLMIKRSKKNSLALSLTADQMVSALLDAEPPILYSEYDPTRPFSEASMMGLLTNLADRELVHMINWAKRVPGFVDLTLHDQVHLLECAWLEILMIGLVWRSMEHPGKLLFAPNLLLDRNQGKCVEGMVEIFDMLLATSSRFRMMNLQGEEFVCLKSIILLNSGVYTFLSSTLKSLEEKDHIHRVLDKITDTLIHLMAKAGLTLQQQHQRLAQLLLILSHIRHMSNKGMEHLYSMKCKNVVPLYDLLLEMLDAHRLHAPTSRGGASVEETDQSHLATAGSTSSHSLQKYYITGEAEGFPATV
Description: as §2, §3

[10] = tested on: Mouse Liver; settings: chronic study, mouse liver; ref ToxRefDB; cited from earlier work
[11] = tested on: Mouse Liver; settings: chronic study, mouse liver; ref ToxRefDB; cited from earlier work; remark: listed apart in the source
[12] = tested on: CYP2B6; assay: CLZD_CYP2B6: Change in expression of CYP2B6 (primary human hepatocytes); assay type: cell-based; settings: 24 hr
In short: (§4)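 Chemicals are tested in human hepatocyte primary cultures over 0.004-40 µM (5 concentrations) for 6, 24 or 48 hr, and concentration- and time-dependent transcript changes are read by quantitative nuclease protection assay.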

[13] = tested on: CYP3A4; assay: CLZD_CYP3A4: Change in expression of CYP3A4 (primary human hepatocytes); assay type: cell-based; settings: 24 hr
In short: as §4

[14] = target: T1, PXR (NR1I2); assay: ATG_PXR_TRANS: Factorial reporter gene assay (HepG2); assay type: cell-based; design: endogenous in cells; host or cells: HepG2; settings: HepG2
In short: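 Seven concentrations per chemical, three-fold dilutions down from the MTC, were tested in HepG2 hepatoma cells. Those cells carried a multiple reporter transcription unit library, read either as cis transcription-factor-site reporters or as a trans mammalian one-hybrid panel for nuclear receptors.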

[15] = target: T5, PXR Human (NR1I2) (Homo sapiens, UniProt O75469); assay: NCGC_PXR_Agonist_human: GAL4 BLAM Reporter gene assay: PXR Human; assay type: cell-based; settings: agonist mode
T5 sequence (O75469 146-434 limits assumed): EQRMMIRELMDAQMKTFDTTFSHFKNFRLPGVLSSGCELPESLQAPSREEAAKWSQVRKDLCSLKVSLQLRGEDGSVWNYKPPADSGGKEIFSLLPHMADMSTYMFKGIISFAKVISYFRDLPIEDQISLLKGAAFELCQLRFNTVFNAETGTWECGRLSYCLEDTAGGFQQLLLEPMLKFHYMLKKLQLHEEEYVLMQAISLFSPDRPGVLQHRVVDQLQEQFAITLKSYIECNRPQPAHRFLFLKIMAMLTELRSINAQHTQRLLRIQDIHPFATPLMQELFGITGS
Description: These assays measure binding constants and enzyme inhibition values for nuclear receptors. The targets include [drawing 67] , [drawing 68] , [drawing 69] , [drawing 70] , [drawing 71] , [drawing 72] , [drawing 73] , [drawing 74] , [drawing 75] and [drawing 76] . Each of the nuclear receptor targets was measured in agonist mode. Assays were run at the NIH Chemical Genomics Center (Rockville, MD).
Cell-based HTS Assays: These assays measuring binding constants and enzyme inhibition values for nuclear receptors. The targets include AR, ER, FXR, LXR, PPARα, PPARδ, PPARγ, RXRα, RXRβ and PXR. Each of the nuclear receptor targets was measured in both agonist and antagonist mode, but the antagonist data is still undergoing analysis due to possible interference between cytotoxicity and assay activity, so antagonist mode data were not used in the present analysis. Assays were run at the NIH Chemical Genomics Center (Rockville, MD) as part of the Tox21 collaboration. […] The R^2 was required to be ≥0.5. Values where only the highest concentration exceeded 50% activity were excluded to eliminate weak or false positives. Detailed description of the methods, data and analysis methods for this dataset will be presented in a separate publication.

[16] = target: T1, PXR (NR1I2); assay: NVS_NR_hPXR: Human PXR Fluormone PXR (SXR) green (cell-free HTS); assay type: binding
In short: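 Cell-free biochemical binding assays; chemicals first screened at a single concentration of 25 […] M in duplicate wells. Signals normalised to same-plate solvent controls as percent of neutral control, and AC50 values came from Hill-equation fits of concentration-response curves.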

Nc1c(Cl)c(Cl)nc(C(=O)O)c1Cl [r245]
ATG_PXRE_CIS ([1]; HepG2): 4.26 | CHR_Rat_Liver_2_PreneoplasticLesion ([2]; rat, chronic study): 0 | ATG_Ahr_CIS ([3]; HepG2): 4.523 | CHR_Rat_Liver_1_AnyLesion ([4]; rat, chronic study): 6 | CLZD_CYP1A2_24 [5]: 4.952 | CHR_Rat_Liver_3_NeoplasticLesion ([6]; rat, chronic study): 0

CCC(=O)C1C(=O)CC(C(=O)[O-])CC1=O.CCC(=O)C1C(=O)CC(C(=O)[O-])CC1=O.[Ca+2] (stereo not shown) [r254]
ATG_PPARg_TRANS [7]: 4.409 | CHR_Rat_Liver_2_PreneoplasticLesion ([2]; rat, chronic study): 0 | ATG_Ahr_CIS ([3]; HepG2): 4.215 | CHR_Rat_Liver_1_AnyLesion ([4]; rat, chronic study): 0 | CHR_Rat_Liver_3_NeoplasticLesion ([6]; rat, chronic study): 0

O=c1n(Cl)c(=O)n(Cl)c(=O)n1Cl [r288]
ATG_PXRE_CIS ([1]; HepG2 reporter): 4.337 | ATG_Ahr_CIS ([3]; HepG2 reporter): 4.509 | CLZD_CYP1A2_24 [5]: 5.117

Cc1c(F)c(F)c(COC(=O)C2C(/C=C(\Cl)C(F)(F)F)C2(C)C)c(F)c1F (stereo not shown) [r294]
ATG_PXRE_CIS ([1]; HepG2 reporter): 4.886 | CHR_Mouse_Liver_1_AnyLesion ([8]; chronic study, mouse liver): 6 | CHR_Rat_Liver_2_PreneoplasticLesion ([2]; chronic study, rat liver): 0 | ATG_ERa_TRANS ([9]; HepG2 reporter): 4.31 | CHR_Mouse_Liver_3_NeoplasticLesion [10]: 6 | CHR_Rat_Liver_1_AnyLesion ([4]; chronic study, rat liver): 0 | CHR_Rat_Liver_3_NeoplasticLesion ([6]; chronic study, rat liver): 0 | CHR_Mouse_Liver_2_PreneoplasticLesion [11]: 6

COCC(=O)N(c1c(C)cccc1C)C(C)C(=O)OC (stereo not shown) [row 196]
CLZD_CYP2B6_24 [12]: 5.11 | ATG_PXRE_CIS ([1]; HepG2): 4.796 | CLZD_CYP3A4_24 [13]: 4.985 | CHR_Mouse_Liver_1_AnyLesion ([8]; chronic mouse study, liver): 6 | ATG_PXR_TRANS [14]: 4.854 | CHR_Rat_Liver_2_PreneoplasticLesion ([2]; chronic rat study, liver): 0 | ATG_Ahr_CIS ([3]; HepG2): 4.149 | CHR_Rat_Liver_1_AnyLesion ([4]; chronic rat study, liver): 6 | CHR_Rat_Liver_3_NeoplasticLesion ([6]; chronic rat study, liver): 0

CNC(=S)[S-].O.O.O.[Na+] [row 197]
ATG_PXRE_CIS ([1]; HepG2): 4.167 | ATG_PPARg_TRANS [7]: 4.569 | ATG_Ahr_CIS ([3]; HepG2): 4.444 | NCGC_PXR_Agonist_human [15]: 4.503

CCCCOC(=O)c1ccccc1C(=O)O [row 215]
ATG_Ahr_CIS ([3]; HepG2): 4.119 | NVS_NR_hPXR [16]: 4.801

CCCCC(C#N)(Cn1cncn1)c1ccc(Cl)cc1 (stereo not shown) [row 217]
CLZD_CYP2B6_24 [12]: 4.948 | ATG_PXRE_CIS ([1]; HepG2): 4.886 | CLZD_CYP3A4_24 [13]: 5.217 | CHR_Mouse_Liver_1_AnyLesion ([8]; chronic mouse study, liver): 6 | CHR_Rat_Liver_2_PreneoplasticLesion ([2]; chronic rat study, liver): 0 | ATG_ERa_TRANS ([9]; HepG2): 4.398 | CHR_Rat_Liver_1_AnyLesion ([4]; chronic rat study, liver): 6 | CLZD_CYP1A2_24 [5]: 5.223 | CHR_Rat_Liver_3_NeoplasticLesion ([6]; chronic rat study, liver): 0

From paper PMC3038857, “Using Nuclear Receptor Activity to Stratify Hepatocarcinogens” (PLoS ONE, 2011)
